According to patent publication US9532553B2, “Process for treating with a chemical compound a body of water used in aquaculture” (SOLVAY SA, priority 2009, dated 2017):

Experiments:
Atlantic salmons = conditions: Example 3: 1500 ppm hydrogen peroxide in 500 m^3 sea water, added in about 4.5 min via eductor nozzle agitation system, treatment continued 22.5 min
Procedure: The treatment was continued for 22.5 minutes then the treated water was flushed away and replaced by fresh seawater.
In Example 3, the body of water comprised additionally Atlantic salmons as living organisms, said salmons being infested with external parasites, i.e. salmon lice (Lepeophtheirus salmonis). The purpose of the test was to remove these parasites from the fish.

[1] = tested on: salmon lice (Lepeophtheirus salmonis); conditions: Example 3: 1500 ppm hydrogen peroxide in 500 m^3 sea water, added in about 4.5 min, treatment continued 22.5 min, then flushed; infested Atlantic salmons

OO [hydrogen peroxide]
injury to the fish (Atlantic salmons): without injuring the fish | removal of salmon lice from the treated fish [1]: effective in removing the salmon lice
